Reference: ChEMBL document CHEMBL6127124, “Structure-Activity Relationships and Discovery of (S)-5-(tert-Butyl)-11-(difluoromethoxy)-9-methoxy-2-oxo-1,2,5,6-tetrahydropyrido[2',1':2,3]imidazo[4,5-h]quinoline-3-carboxylic Acid (AB-161), a Novel Orally Available and Liver-Centric HBV RNA Destabilizer” (J Med Chem, 2024)

Columns and labels:
[1] = Cytotoxicity in human HepG2.2.15 cells by Cell Titer-Glo assay; assay type: toxicity, cell-based, HepG2 2.2.15
Hepatitis B virus [2] = assay: Antiviral activity against HBV infected in human HepG2.2.15 cells assessed as reduction in HBsAg level incubated for 6 days with media and compound replenishment on third day by CLIA; assay type: functional, organism-based; settings: HepG2.2.15, 144 h; for EC90: time 6 day
[3] = Ratio of total drug concentration in liver to plasma in CD-1 mouse at 10 mg/kg, po measured for 24 hrs by LC-MS/MS analysis; assay type: ADME, organism-based; settings: for Kp at 24 h: CD-1, mouse, liver and plasma; for Ratio: mouse, in vivo, po, 10 mg/kg, 24 h, BLD = below limit of detection
[4] = Metabolic stability in Sprague-Dawley rat liver microsomes assessed as clearance at 0.3 uM preincubated for 5 mins followed by NADPH addition measured upto 60 mins by LC-MS/MS analysis; assay type: ADME, Microsome; settings: time < 65 min, read-out: CLH
[5] = Ratio of total drug concentration in liver to plasma in CD-1 mouse at 10 mg/kg, po measured for 12 hrs by LC-MS/MS analysis; assay type: ADME, organism-based; settings: liver and plasma
[6] = AUC (0 to 24 hrs) in CD-1 mouse at 10 mg/kg, po measured for 24 hrs by LC-MS/MS analysis; assay type: ADME, organism-based; settings: in vivo
[7] = Metabolic stability in human liver microsomes assessed as clearance at 0.3 uM preincubated for 5 mins followed by NADPH addition measured upto 60 mins by LC-MS/MS analysis; assay type: ADME, Microsome; settings: time < 65 min, read-out: CLH
[8] = Metabolic stability in CD-1 mouse liver microsomes assessed as clearance at 0.3 uM preincubated for 5 mins followed by NADPH addition measured upto 60 mins by LC-MS/MS analysis; assay type: ADME, Microsome; settings: time < 65 min, read-out: CLH
[9] = Selectivity ratio of drug concentration in liver in CD-1 mouse at 10 mg/kg, po measured for 24 hrs to EC90 for antiviral activity against HBV infected in human HepG2.2.15 cells assessed as reduction in HBsAg level; assay type: ADME, organism-based; settings: in vivo
[10] = Selectivity ratio of drug concentration in liver in CD-1 mouse at 10 mg/kg, po measured for 12 hrs to EC90 for antiviral activity against HBV infected in human HepG2.2.15 cells assessed as reduction in HBsAg level; assay type: ADME, organism-based; settings: in vivo
[11] = AUC (0 to 24 hrs) in CD-1 mouse at 0.2 mg/kg, po measured for 24 hrs by LC-MS/MS analysis; assay type: ADME, organism-based; settings: in vivo
[12] = Selectivity ratio of drug concentration in liver in CD-1 mouse at 0.2 mg/kg, po measured for 12 hrs to EC90 for antiviral activity against HBV infected in human HepG2.2.15 cells assessed as reduction in HBsAg level; assay type: ADME, organism-based; settings: in vivo
[13] = Selectivity ratio of drug concentration in liver in CD-1 mouse at 0.2 mg/kg, po measured for 24 hrs to EC90 for antiviral activity against HBV infected in human HepG2.2.15 cells assessed as reduction in HBsAg level; assay type: ADME, organism-based; settings: in vivo
[14] = Ratio of total drug concentration in liver to plasma in CD-1 mouse at 0.2 mg/kg, po measured for 24 hrs by LC-MS/MS analysis; assay type: ADME, organism-based; settings: for Ratio: mouse, in vivo, po, 0.2 mg/kg, 24 h, BLD = below limit of detection
[15] = Ratio of total drug concentration in liver to plasma in CD-1 mouse at 0.2 mg/kg, po measured for 12 hrs by LC-MS/MS analysis; assay type: ADME, organism-based; settings: liver and plasma
[16] = Chemical stability of compound in PBS assessed as compound remaining measured after 6 days by HPLC UV analysis; assay type: physicochemical; settings: buffer, 144 h; time 6 day
Hepatitis B virus [17] = assay: Antiviral activity against HBV genotype D in immuno-competent C57BL/6 mouse model of chronic HBV assessed as log10 reduction in HBsAg production at 3 mg/kg, po qd for 7 days measured 24 hrs post-last dose by EIA (reference value: 0.67); assay type: functional; settings: time 8 day
Hepatitis B virus [18] = assay: Antiviral activity against HBV genotype D in immuno-competent C57BL/6 mouse model of chronic HBV assessed as log10 reduction in HBsAg production at 10 mg/kg, po qd for 7 days measured 24 hrs post-last dose by EIA (reference value: 0.98); assay type: functional; settings: time 8 day
[19] = Oral bioavailability in CD-1 mouse at 10 mg/kg measured for 24 hrs by LC-MS/MS analysis; assay type: ADME, organism-based; settings: in vivo

Compound | CC50 [1] [nM] | EC50 (Hepatitis B virus [2]) [nM] | EC90 (Hepatitis B virus [2]) [nM] | Kp at 24 h [3] | microsomal CLint at 0.3 µM [4] [µL/min/mg] | Kp at 12 h [5] | AUC(0-t) at 24 h [6] [ng·h/mL] | microsomal CLint at 0.3 µM [7] [µL/min/mg] | microsomal CLint at 0.3 µM [8] [µL/min/mg] | Ratio [9] | Ratio [10] | other results
CC(C)(C)C1Cc2c(nc3c(C(F)(F)F)cc(F)cn23)-c2[nH]c(=O)c(C(=O)O)cc21 (configuration not stated) | > 50000 | 4.9 | 10 | – | – | – | – | – | – | – | – | –
CC(C)(C)C1Cc2c(nc3c(C(F)(F)F)cc(Cl)cn23)-c2c1cc(C(=O)O)c(=O)n2C1CC1 (configuration not stated) | 16000 | 2.3 | 7 | – | – | – | – | – | – | – | – | –
CC(C)(C)[C@@H]1Cc2c(nc3c(C(F)(F)F)cccn23)-c2[nH]c(=O)c(C(=O)O)cc21 | > 50000 | 3.1 | 46 | 92 | 8 | 72 | 2150 | 2 | 15 | 3 | 438 | –
COc1ccn2c3c(nc2c1OC(F)F)-c1[nH]c(=O)c(C(=O)O)cc1[C@H](C(C)(C)C)C3 | > 50000 | 3.5 | 49 | 19 | 5 | 24 | 2690 | 4 | 3 | 1 | 69 | AUC(0-t) at 24 h [11]: 44 ng·h/mL; Ratio [12]: 3; Ratio ([13]; BLD = below limit of detection): Bld; Ratio [14]: Bld; Kp at 12 h [15]: 22
COc1ccn2c3c(nc2c1OC)-c1[nH]c(=O)c(C(=O)O)cc1[C@H](C(C)(C)C)C3 | > 50000 | 5.6 | 51 | 5 | – | – | 5100 | – | 1 | 0.3 | – | –
CC(C)(C)[C@@H]1Cc2c(nc3c(C(F)F)cccn23)-c2[nH]c(=O)c(C(=O)O)cc21 | > 50000 | 12 | 135 | – | – | – | – | 2 | 11 | – | – | –
CC(C)(C)[C@@H]1Cc2c(nc3c(OC(F)F)cccn23)-c2[nH]c(=O)c(C(=O)O)cc21 | > 50000 | 3.7 | 34 | – | 33 | 133 | 853 | 2 | 45 | 1 | 108 | Ratio [3]: Bld
Cc1cc(C(F)(F)F)c2nc3c(n2c1)CC(C(C)(C)C)c1cc(C(=O)O)c(=O)[nH]c1-3 (configuration not stated) | 47000 | 0.8 | 11 | – | – | – | – | – | – | – | – | –
CC(C)(C)C1Cc2c(cc(OC(F)F)c3ncccc23)-c2[nH]c(=O)c(C(=O)O)c(O)c21 (configuration not stated) | 48000 | 0.3 | 2.4 | – | – | – | – | – | – | – | – | Stability [16]: Unstable
CC(C)(C)[C@@H]1Cc2c(nc3c(C(F)(F)F)cc(Cl)cn23)-c2[nH]c(=O)c(C(=O)O)cc21 | > 50000 | 2 | 34 | – | – | – | – | 3 | 3 | – | – | –
CC(C)(C)[C@@H]1Cc2c(nc3c(OC(F)F)cc(OC(F)F)cn23)-c2[nH]c(=O)c(C(=O)O)cc21 | > 50000 | 7.9 | 7 | – | – | – | – | – | – | – | – | –
COc1cccn2c3c(nc12)-c1[nH]c(=O)c(C(=O)O)cc1[C@H](C(C)(C)C)C3 | > 50000 | 12 | 121 | – | – | 11 | – | 1 | 16 | – | 3 | –
CC(C)(C)[C@@H]1Cc2c(nc3c(OC(F)F)cc(F)cn23)-c2[nH]c(=O)c(C(=O)O)cc21 | > 50000 | 3.7 | 54 | 194 | 4 | 105 | 2740 | 1 | 3 | 203 | 1080 | AUC(0-t) at 24 h [11]: 67 ng·h/mL; Ratio [12]: 25; log(activity) (Hepatitis B virus [17]): 0.16; Ratio [13]: 7; Kp at 24 h ([14]; CD-1, mouse, liver and plasma): 101; log(activity) (Hepatitis B virus [18]): 0.37; Kp at 12 h [15]: 176
COCCCOc1cc2c(nc1OC)-c1[nH]c(=O)c(C(=O)O)c(O)c1[C@H](C(C)(C)C)C2 | 26000 | 1.1 | 13 | 1.3 | – | – | 4940 | 57 | 12 | 4.6 | – | bioavailability [19]: 93%; Stability [16]: Unstable
Cn1c2c(cc(C(=O)O)c1=O)[C@H](C(C)(C)C)Cc1c-2nc2c(C(F)(F)F)cc(Cl)cn12 | 15000 | 0.24 | 2.5 | – | 2 | 43 | 786 | 7 | 1 | – | 2002 | AUC(0-t) at 24 h [11]: 17 ng·h/mL; Ratio [12]: 22; Ratio [3]: Bld; Ratio ([13]; BLD = below limit of detection): Bld; Ratio [14]: Bld; Ratio ([9]; BLD = below limit of detection): Bld; Kp at 12 h [15]: 24
